Reference: ChEMBL document CHEMBL3526157, “Unique metabolic pathway of [(14)C]lenvatinib after oral administration to male cynomolgus monkey” (Drug Metab Dispos, 2012)

Experiments:
Cynomolgus monkey [1] = assay: Drug retention time in cynomolgus monkey treated with 30 mg/kg, po of [14C]lenvatinib administered on day 1, 2 and 4 by radio-LC/MS analysis; format: ADME, organism-based, Macaca fascicularis; set-up: dose 30 mg/kg, route oral; settings: in vivo
Cynomolgus monkey [2] = assay: Drug metabolism in cynomolgus monkey treated with 30 mg/kg, po of [14C]lenvatinib administered on day 1, 2 and 4 by radio-LC/MS analysis; format: ADME, organism-based, Macaca fascicularis; set-up: dose 30 mg/kg, route oral; settings: in vivo
[3] = Drug metabolism in Sprague-Dawley rat liver S9 fraction assessed as decrease of parent compound level at 50 uM up to 120 mins by HPLC analysis in presence of GSH and NADPH; format: ADME, subcellular; settings: s9, 2 h, TDE = time-dependent effect
[4] = Drug metabolism in potassium phosphate buffer at pH 7.4 assessed as decrease of parent compound at 50 uM in presence of NAC; format: physicochemical; settings: pH 7.4, 50 µM
[5] = Drug metabolism in Sprague-Dawley rat liver S9 fraction assessed as 5-(3-(6-carbamoyl-7-methoxyquinolin-4-ylthio)-1-(carboxymethylamino)-1-oxopropan-2-ylamino)-[…]-5-oxopentanoic acid level at 50 uM up to 60 mins by HPLC analysis in presence of GSH and absence of NADPH; settings: s9, 1 h
[6] = Drug metabolism in cynomolgus monkey liver S9 fraction assessed as decrease of parent compound level at 50 uM up to 120 mins by HPLC analysis in presence of GSH and absence of NADPH; format: ADME, tissue-based, Macaca fascicularis; settings: s9, 2 h, TDE = time-dependent effect
[7] = Drug metabolism in Sprague-Dawley rat liver S9 fraction assessed as decrease of parent compound level at 50 uM up to 60 mins by HPLC analysis in presence of GSH and absence of NADPH; settings: s9, 1 h, TDE = time-dependent effect
[8] = Drug metabolism in cynomolgus monkey liver S9 fraction assessed as 5-(3-(6-carbamoyl-7-methoxyquinolin-4-ylthio)-1-(carboxymethylamino)-1-oxopropan-2-ylamino)-[…]-5-oxopentanoic acid level at 50 uM up to 120 mins by HPLC analysis in presence of GSH and NADPH; format: ADME, subcellular, Macaca fascicularis; settings: s9, 2 h
[9] = Drug metabolism in cynomolgus monkey liver S9 fraction assessed as decrease of parent compound level at 50 uM up to 120 mins by HPLC analysis in presence of GSH and NADPH; format: ADME, subcellular, Macaca fascicularis; settings: s9, 2 h, TDE = time-dependent effect
[10] = Drug metabolism in potassium phosphate buffer at pH 7.4 assessed as decrease of parent compound at 50 uM in presence of cysteine; format: physicochemical; settings: pH 7.4, 50 µM
[11] = Drug metabolism in Sprague-Dawley rat liver S9 fraction assessed as 5-(3-(6-carbamoyl-7-methoxyquinolin-4-ylthio)-1-(carboxymethylamino)-1-oxopropan-2-ylamino)-[…]-5-oxopentanoic acid level at 50 uM up to 60 mins by HPLC analysis in presence of GSH and NADPH; settings: s9, 1 h
[12] = Drug metabolism in human liver S9 fraction assessed as decrease of parent compound level at 50 uM up to 120 mins by HPLC analysis in presence of GSH and NADPH; format: ADME, subcellular; settings: s9, 2 h, TDE = time-dependent effect
[13] = Drug metabolism in human liver S9 fraction assessed as 5-(3-(6-carbamoyl-7-methoxyquinolin-4-ylthio)-1-(carboxymethylamino)-1-oxopropan-2-ylamino)-[…]-5-oxopentanoic acid level at 50 uM up to 120 mins by HPLC analysis in presence of GSH and absence of NADPH; format: ADME, tissue-based; settings: s9, 2 h
[14] = Drug metabolism in potassium phosphate buffer at pH 7.4 assessed as decrease of parent compound at 50 uM in presence of GSH; format: physicochemical; settings: pH 7.4, 50 µM
[15] = Drug metabolism in human liver S9 fraction assessed as 5-(3-(6-carbamoyl-7-methoxyquinolin-4-ylthio)-1-(carboxymethylamino)-1-oxopropan-2-ylamino)-[…]-5-oxopentanoic acid level at 50 uM up to 120 mins by HPLC analysis in presence of GSH and NADPH; format: ADME, subcellular; settings: s9, 2 h
[16] = Drug metabolism in cynomolgus monkey liver S9 fraction assessed as 5-(3-(6-carbamoyl-7-methoxyquinolin-4-ylthio)-1-(carboxymethylamino)-1-oxopropan-2-ylamino)-[…]-5-oxopentanoic acid level at 50 uM up to 120 mins by HPLC analysis in presence of GSH and absence of NADPH; format: ADME, Macaca fascicularis; settings: s9, 2 h
[17] = Drug metabolism in human liver S9 fraction assessed as decrease of parent compound level at 50 uM up to 120 mins by HPLC analysis in presence of GSH and absence of NADPH; format: ADME, tissue-based; settings: s9, 2 h, TDE = time-dependent effect
[18] = Drug metabolism in cynomolgus monkey assessed as 3,3'-disulfanediylbis(2-(6-carbamoyl-7-methoxyquinolin-4-ylamino)propanoic acid) metabolite level in urine at 30 mg/kg, po administered on day 1, 2 and 4 by radio-LC/MS analysis; format: ADME, organism-based, Macaca fascicularis; set-up: dose 30 mg/kg, route oral; settings: in vivo
[19] = Drug metabolism in cynomolgus monkey assessed as 5-(3-(6-carbamoyl-7-methoxyquinolin-4-ylthio)-1-(carboxymethylamino)-1-oxopropan-2-ylamino)-[…]-5-oxopentanoic acid metabolite level in liver at 30 mg/kg, po administered on day 1, 2 and 4 by radio-LC/MS analysis; format: ADME, organism-based, Macaca fascicularis; set-up: dose 30 mg/kg, route oral; settings: in vivo
[20] = Drug metabolism in cynomolgus monkey assessed as parent compound level in bile at 30 mg/kg, po administered on day 1, 2 and 4 by radio-LC/MS analysis; format: ADME, organism-based, Macaca fascicularis; set-up: dose 30 mg/kg, route oral; settings: in vivo
Cynomolgus monkey [21] = assay: Drug metabolism in cynomolgus monkey assessed as 5-(3-(6-carbamoyl-7-methoxyquinolin-4-ylthio)-1-(carboxymethylamino)-1-oxopropan-2-ylamino)-[…]-5-oxopentanoic acid formation at 30 mg/kg, po administered on day 1, 2 and 4 by radio-LC/MS analysis; format: ADME, organism-based, Macaca fascicularis; set-up: dose 30 mg/kg, route oral; settings: in vivo
[22] = Drug metabolism in cynomolgus monkey assessed as parent compound level in liver at 30 mg/kg, po administered on day 1, 2 and 4 by radio-LC/MS analysis; format: ADME, organism-based, Macaca fascicularis; set-up: dose 30 mg/kg, route oral; settings: in vivo
Cynomolgus monkey [23] = assay: Drug metabolism in cynomolgus monkey assessed as 2-(6-carbamoyl-7-methoxyquinolin-4-ylamino)-3-((2-(6-carbamoyl-7-methoxyquinolin-4-ylamino)-3-(carboxymethylamino)-3-oxopropyl)disulfanyl)propanoic acid formation at 30 mg/kg, po administered on day 1, 2 and 4 by radio-LC/MS analysis; format: ADME, organism-based, Macaca fascicularis; set-up: dose 30 mg/kg, route oral; settings: in vivo
[24] = Drug excretion in cynomolgus monkey feces assessed as unchanged level of drug at 30 mg/kg, po administered on day 1, 2 and 4 by radio-LC/MS analysis; format: ADME, organism-based, Macaca fascicularis; set-up: dose 30 mg/kg, route oral; settings: read-out: Drug excretion
[25] = Drug metabolism in cynomolgus monkey assessed as 2-(6-carbamoyl-7-methoxyquinolin-4-ylamino)-3-(6-carbamoyl-7-methoxyquinolin-4-ylthio)propanoic acid metabolite level in urine at 30 mg/kg, po administered on day 1, 2 and 4 by radio-LC/MS analysis; format: ADME, organism-based, Macaca fascicularis; set-up: dose 30 mg/kg, route oral; settings: in vivo
[26] = Drug metabolism in cynomolgus monkey assessed as 2-(6-carbamoyl-7-methoxyquinolin-4-ylamino)-3-mercaptopropanoic acid metabolite level in bile at 30 mg/kg, po administered on day 1, 2 and 4 by radio-LC/MS analysis; format: ADME, organism-based, Macaca fascicularis; set-up: dose 30 mg/kg, route oral; settings: in vivo
[27] = Drug metabolism in cynomolgus monkey assessed as 2-(6-carbamoyl-7-methoxyquinolin-4-ylthio)acetic acid metabolite level in urine at 30 mg/kg, po administered on day 1, 2 and 4 by radio-LC/MS analysis; format: ADME, organism-based, Macaca fascicularis; set-up: dose 30 mg/kg, route oral; settings: in vivo
[28] = Drug metabolism in cynomolgus monkey assessed as 2-(6-carbamoyl-7-methoxyquinolin-4-ylamino)-3-(6-carbamoyl-7-methoxyquinolin-4-ylthio)propanoic acid metabolite level in bile at 30 mg/kg, po administered on day 1, 2 and 4 by radio-LC/MS analysis; format: ADME, organism-based, Macaca fascicularis; set-up: dose 30 mg/kg, route oral; settings: in vivo
[29] = Drug metabolism in cynomolgus monkey assessed as 2-(6-carbamoyl-7-methoxyquinolin-4-ylamino)-3-(6-carbamoyl-7-methoxyquinolin-4-ylthio)propanoic acid metabolite level in liver at 30 mg/kg, po administered on day 1, 2 and 4 by radio-LC/MS analysis; format: ADME, organism-based, Macaca fascicularis; set-up: dose 30 mg/kg, route oral; settings: in vivo
Cynomolgus monkey [30] = assay: Drug metabolism in cynomolgus monkey assessed as 2-(6-carbamoyl-7-methoxyquinolin-4-ylamino)-3-mercaptopropanoic acid formation at 30 mg/kg, po administered on day 1, 2 and 4 by radio-LC/MS analysis; format: ADME, organism-based, Macaca fascicularis; set-up: dose 30 mg/kg, route oral; settings: in vivo
Cynomolgus monkey [31] = assay: Drug metabolism in cynomolgus monkey assessed as 3,3'-disulfanediylbis(2-(6-carbamoyl-7-methoxyquinolin-4-ylamino)propanoic acid) formation at 30 mg/kg, po administered on day 1, 2 and 4 by radio-LC/MS analysis; format: ADME, organism-based, Macaca fascicularis; set-up: dose 30 mg/kg, route oral; settings: in vivo
Cynomolgus monkey [32] = assay: Drug metabolism in cynomolgus monkey assessed as 2-(6-carbamoyl-7-methoxyquinolin-4-ylamino)-3-(6-carbamoyl-7-methoxyquinolin-4-ylthio)propanoic acid formation at 30 mg/kg, po administered on day 1, 2 and 4 by radio-LC/MS analysis; format: ADME, organism-based, Macaca fascicularis; set-up: dose 30 mg/kg, route oral; settings: in vivo
[33] = Drug metabolism in cynomolgus monkey assessed as 2-(6-carbamoyl-7-methoxyquinolin-4-ylamino)-3-mercaptopropanoic acid metabolite level in liver at 30 mg/kg, po administered on day 1, 2 and 4 by radio-LC/MS analysis; format: ADME, organism-based, Macaca fascicularis; set-up: dose 30 mg/kg, route oral; settings: in vivo
Cynomolgus monkey [34] = assay: Drug metabolism in cynomolgus monkey assessed as parent compound formation at 30 mg/kg, po administered on day 1, 2 and 4 by radio-LC/MS analysis; format: ADME, organism-based, Macaca fascicularis; set-up: dose 30 mg/kg, route oral; settings: in vivo
Plasma = assay: Drug metabolism in cynomolgus monkey assessed as parent compound level in plasma at 30 mg/kg, po administered on day 1, 2 and 4 by radio-LC/MS analysis; format: ADME, organism-based, Macaca fascicularis; set-up: dose 30 mg/kg, route oral; settings: in vivo
[35] = Drug metabolism in cynomolgus monkey assessed as 3,3'-disulfanediylbis(2-(6-carbamoyl-7-methoxyquinolin-4-ylamino)propanoic acid) metabolite level in bile at 30 mg/kg, po administered on day 1, 2 and 4 by radio-LC/MS analysis; format: ADME, organism-based, Macaca fascicularis; set-up: dose 30 mg/kg, route oral; settings: in vivo
Cynomolgus monkey [36] = assay: Drug metabolism in cynomolgus monkey assessed as 2-(6-carbamoyl-7-methoxyquinolin-4-ylthio)acetic acid formation at 30 mg/kg, po administered on day 1, 2 and 4 by radio-LC/MS analysis; format: ADME, organism-based, Macaca fascicularis; set-up: dose 30 mg/kg, route oral; settings: in vivo
[37] = Drug metabolism in cynomolgus monkey assessed as 2-(6-carbamoyl-7-methoxyquinolin-4-ylamino)-3-((2-(6-carbamoyl-7-methoxyquinolin-4-ylamino)-3-(carboxymethylamino)-3-oxopropyl)disulfanyl)propanoic acid metabolite level in urine at 30 mg/kg, po administered on day 1, 2 and 4 by radio-LC/MS analysis; format: ADME, organism-based, Macaca fascicularis; set-up: dose 30 mg/kg, route oral; settings: in vivo

COc1cc2nccc(SCC(=O)O)c2cc1C(N)=O
12.2 min: Retention_time (Cynomolgus monkey [1])
metabolite_detected: Drug metabolism (Cynomolgus monkey [2])

COc1cc2nccc(Oc3ccc(NC(=O)NC4CC4)c(Cl)c3)c2cc1C(N)=O.CS(=O)(=O)O [LENVATINIB MESYLATE]
46.4 min: Retention_time (Cynomolgus monkey [1])
tde: Drug metabolism [3] | Drug metabolism [6] | Drug metabolism [7] | Drug metabolism [9] | Drug metabolism [12] | Drug metabolism [17]
metabolite_detected: Drug metabolism [4] | Drug metabolism [5] | Drug metabolism [8] | Drug metabolism [10] | Drug metabolism [11] | Drug metabolism [13] | Drug metabolism [14] | Drug metabolism [15] | Drug metabolism [16]

COc1cc2nccc(N[C@@H](CSc3ccnc4cc(OC)c(C(N)=O)cc34)C(=O)O)c2cc1C(N)=O
metabolite_detected: Drug metabolism (Cynomolgus monkey [2])
17.1 min: Retention_time (Cynomolgus monkey [1])

COc1cc2n[14cH]cc(Oc3ccc(NC(=O)NC4CC4)c(Cl)c3)c2cc1C(N)=O.CS(=O)(=O)O
51%: dose excreted [24]
metabolite_detected: Drug metabolism [18] | Drug metabolism [19] | Drug metabolism [20] | Drug metabolism (Cynomolgus monkey [21]) | Drug metabolism [22] | Drug metabolism (Cynomolgus monkey [23]) | Drug metabolism [25] | Drug metabolism [26] | Drug metabolism [27] | Drug metabolism [28] | Drug metabolism [29] | Drug metabolism (Cynomolgus monkey [30]) | Drug metabolism (Cynomolgus monkey [31]) | Drug metabolism (Cynomolgus monkey [32]) | Drug metabolism [33] | Drug metabolism (Cynomolgus monkey [34]) | Drug metabolism (Plasma) | Drug metabolism [35] | Drug metabolism (Cynomolgus monkey [36]) | Drug metabolism [37]
